Consider one molecule from patent US20260021046A1, “LIPID NANOPARTICLE AND PHARMACEUTICAL COMPOSITION” (NATIONAL UNIVERSITY CORPORATION HOKKAIDO UNIVERSITY, priority 2022, published 2026).

In one series the test system is normal mice. Kind of series: Biological safety in normal mice (serum markers, histopathology). The series is classed as in vivo. Particulars: CL15A6 lipid nanoparticles with EGFP mRNA, 2 mg/kg RNA iv, 24 hours. The procedure:
In order to exclude the effects of liver fibrosis on hepatic function and tissues, the biosafety of the lipid nanoparticle prepared by using CL15A6 was evaluated in normal mice. Lipid nanoparticles containing EGFP mRNA were administered intravenously to mice at an amount of 2 mg/kg RNA per kg body weight. Twenty-four hours after the administration, the mice were euthanized, and serum and major organs were collected and analyzed in comparison with control mice treated with HEPES buffer. Aspartate transaminase (AST), alanine aminotransferase (ALT), and creatinine (CRE), which are functional markers of the liver or kidney, in plasma were colorimetrically quantified using a commercially available kit (Sigma-Aldrich), and the results were compared. In addition, the collected organs were fixed, stained with hematoxylin and eosin, and histopathologically evaluated as described in NPL 17. • [NPL 17] Mahmoud A. Younis, et al., “Ultra-small lipid nanoparticles encapsulating sorafenib and midkine-siRNA selectively-eradicate sorafenib-resistant hepatocellular carcinoma in vivo”, J Control Release, Vol. 331, pp. 335-349

Series [1] has as its system activated hepatic stellate cell line LX-2. The experiment in a line: EGFP mRNA delivery and transfection screening by FACS. The series is classed as cell-based. The conditions noted are these: LX-2 cells; EGFP mRNA lipid nanoparticles, 250 ng mRNA per well. The procedure: Fourteen types of lipid nanoparticles prepared were screened with activated hepatic stellate cell line LX-2 (Merck (Germany) and hepatocyte line FL83B (ATCC, USA).
Twenty-four hours prior to the experiment, cells were seeded in 6-well plates at 1×10^5 cells/well and incubated at 37° C. The medium was aspirated and the cells were washed with (−) PBS and then treated with lipid nanoparticles encapsulating EGFP mRNA (TriLink BioTechnologies, USA) in 1.5 ml of growth medium for 24 hours. The amount of mRNA per well was 250 ng. Cells were then washed with (−) PBS and incubated in fresh medium for an additional 21 hours. The median fluorescence intensity of EGFP and the percentage of transfected cells were evaluated by fluorescence activated cell sorting (FACS) using a flow cytometer (Cytoflex, Beckman Coulter, USA).

The test system of another series is SMO mRNA. Kind of series: In vivo SMO mRNA knockdown in liver tissue by qRT-PCR. Also on record: species or system mice. Particulars: SMO-siRNA lipid nanoparticles, 0.5 mg/kg RNA iv, 24 hours, versus HEPES buffer control. The procedure:
TAA-induced liver fibrosis model mice were prepared in the same manner as in Example 1, and SMO-siRNA-encapsulated lipid nanoparticles were intravenously administered to the mice via the tail vein so that the amount of RNA per kg of body weight was 0.5 mg/kg. 24 hours after the administration, the mouse livers were collected. The ratio of the amount of SMO mRNA to the amount of GAPDH mRNA in the liver tissue was confirmed by qRT-PCR. The SMO gene is expressed only in hepatic stellate cells in the liver.
Next, a lipid composition containing CL15H6 and SMO-siRNA were mixed in different ratios to prepare lipid nanoparticles with different nitrogen/phosphate (N/P) ratios. Specifically, lipid nanoparticles were prepared with N/P ratios of 0.5, 1, 2, 4, 8, 12, 16, and 20. The prepared lipid nanoparticles were intravenously administered to mice with liver fibrosis so that the amount of RNA per kg of body weight was 0.5 mg/kg, and the ratio of the amount of SMO mRNA to the amount of GAPDH mRNA in the liver tissue was confirmed 24 hours later.
Next, the relationship between the dosage amount of SMO-siRNA and the ratio of the amount of SMO mRNA to the amount of GAPDH mRNA in the liver tissue was examined. For comparison, the relationship between the dosage amount of control siRNA (siCtrl) and the ratio of SMO mRNA to GAPDH mRNA in hepatic stellate cells was also examined.
Lipid nanoparticles encapsulating a mixture of the above SMO-siRNA and TGFβ1-siRNA at a ratio of 1:1 were prepared by using CL15H6, the above SMO-siRNA (SEQ ID NOs: 1 and 2) targeting the mRNA of the SMO gene and the TGFβ1-siRNA (SEQ ID NOS: 3 and 4) targeting the mRNA of the TGFβ1 gene and having the sequence shown in Table 4 below. The prepared lipid nanoparticles were intravenously administered to mice with liver fibrosis so that each of the amounts of SMO-siRNA and of TGFβ1-siRNA per kg of body weight was 0.25 mg/kg, and 24 hours later, the ratios of the amounts of SMO mRNA and of TGFβ1 mRNA to the amount of GAPDH mRNA in the liver tissue was confirmed.
A general note: Real-time PCR tracks product formation cycle by cycle.

As for `CCCCC/C=C\C/C=C\CCCCCCCCC(O)(CCCCCCCC/C=C\C/C=C\CCCCC)CCCCOC(=O)C1CCN(C)CC1` [CL15A6, (14z,17z)-5-hydroxy-5-((9z,12z)-octadeca-9,12-dien-1-yl)tricosa-14,17-dien-1-yl 1-methylpiperidine-4-carboxylate], in the series with normal mice, the ALT result is “no significant increases”; the AST entry is “no significant increases”; the CRE entry is “no significant increases”; the “histopathology of major organs (liver, lung, heart, and kidney)” value is listed as “no signs of injury”. Moreover, in series [1], the “mRNA delivery efficiency (median fluorescence intensity of EGFP)” value was “high and promising”; the “transfection efficiency (percentage of transfected cells)” value was “promising”. The “amount of SMO mRNA (ratio to GAPDH mRNA) in liver tissue” value in the series on SMO mRNA is reported as “significantly reduced”.
